Laboratory results published in patent US9718773B2, “Substituted 5 membered heterocyclic compounds and preparation thereof” (Council of Scientific and Industrial Research, priority 2014, dated 2017).

Tested on: Mycobacterium smegmatis MC^2155 strain
Assay: Anti-mycobacterial growth inhibition assay (turbidometry, 96 well plate)
Format: cell-based
Settings: Mycolicibacterium smegmatis, ATCC14468|MC^2155, 32 h
Description: Anti-Mycobacterial Activity Assay:
Anti-mycobacterial activity of the synthesized compounds was performed with Mycobacterium smegmatis MC^2155 strain by performing a growth inhibition assay by agar dilution followed turbidometry method. The assay was semi-throughput and conducted in a 96 well plate (sterile). Isolated single colonies of M. smegmatis MC^2 155 (ATCC 14468) grown on 7H10 agar plate were grown overnight in Middlebrook 7H9 medium (0.47% Middlebrook 7H9 broth base, 10% ADS, 0.2% glycerol, and 0.1% Tween-80) to mid exponential phase at 37° C. When the OD of this culture reached approximately 0.8, a secondary culture was inoculated in 5 ml Middlebrook 7H9 medium. The secondary culture was incubated overnight and allowed to grow at 37° C. to early log phase (OD600≈0.3). For the anti-mycobacterial assay, 98 μl of 1:1000-folds dilution of secondary culture was dispensed into 96-well microtiter plate per well along with 2 μl of test compound in triplicate. 240 μl of sterile water were added to each well of the peripheral rows of 96-well plate to minimize media evaporation during assay incubation. The final concentration of the test compound in each well was 30 μM. Bacterial growth was assessed after 32 hours of incubation by measuring turbidity at 600 nm OD600 values using TECAN Infinite 200 PRO™ (Tecan Instruments, Switzerland). Depending upon the percentage of growth, the percentage of inhibition was calculated at the standard concentration of 30 μM. Isoniazid and Rifampicin were included in every assay plate as positive controls of growth inhibition using stock solutions of INH (10 mg/mL, HiMedia) and Rifampicin (10 mg/mL, HiMedia) to achieve the final concentration of 16 μg/mL for INH and 2 μg/mL for Rifampicin. Additional controls, DMSO (solvent without compound) and medium without inoculums, were included in all the assay plates avoiding intra assay variability. The results were analyzed as the percentage of growth inhibition.

SMILES	inhibition at 30 µM [%]
CCOC(=O)C[C@@H]1[C@@H](C(NC(=O)OC(C)(C)C)c2ccccc2)CN(S(=O)(=O)c2ccc(C)cc2)[C@@H]1C(=O)OCC (stereo partly shown) [IA]	13.5
CCOC(=O)C[C@@H]1[C@@H](C(NC(=O)OC(C)(C)C)c2ccc(C(F)(F)F)cc2)CN(S(=O)(=O)c2ccc(C)cc2)[C@@H]1C(=O)OCC (stereo partly shown) [IC]	0.493
CCOC(=O)C[C@@H]1[C@@H](C(NC(=O)OC(C)(C)C)c2ccc3ccccc3c2)CN(S(=O)(=O)c2ccc(C)cc2)[C@@H]1C(=O)OCC (stereo partly shown) [IE]	20.7
CCOC(=O)C[C@@H]1[C@@H](C(NC(=O)OC(C)(C)C)c2ccc(Br)cc2)CN(S(=O)(=O)c2ccc(C)cc2)[C@@H]1C(=O)OCC (stereo partly shown) [IF]	10.8
CCOC(=O)C[C@@H]1[C@@H]([C@@H](NC(=O)OC(C)(C)C)c2ccc(F)cc2)CN(S(=O)(=O)c2ccc(C)cc2)[C@@H]1C(=O)OCC [IG, ethyl (2S,3R,4R)-4-((R)-((tert-butoxycarbonyl)amino)(4-fluorophenyl)methyl)-3-(2ethoxy-2-oxoethyl)-1-tosylpyrrolidine-2-carboxylate]	18.2

Same assay, conditions: Mycolicibacterium smegmatis, ATCC14468|MC^2155; test compound 30 μM; bacterial growth after 32 hours by OD600; M. smegmatis MC^2 155 (ATCC 14468); read-out: % Inhibition

SMILES	inhibition at 30 µM [%]
CCOC(=O)C[C@H]1CN(C(=O)OC(C)C)N(C(=O)OC(C)C)[C@@H]1Cc1ccc(OC)cc1 [2e, Diisopropyl (3R,4S)-4-(2-ethoxy-2-oxoethyl)-3-(4-methoxybenzyl)pyrazolidine-1,2-dicarboxylate]	14
CCOC(=O)C[C@H]1CN(C(=O)OC(C)C)N(C(=O)OC(C)C)[C@@H]1Cc1ccc(SC)cc1 [2g, Diisopropyl (3R,4S)-4-(2-ethoxy-2-oxoethyl)-3-(4-(methylthio)benzyl)pyrazolidine-1,2-dicarboxylate]	24.9
CCOC(=O)C[C@H]1CN(C(=O)OC(C)C)N(C(=O)OC(C)C)[C@@H]1Cc1cc2c(cc1[N+](=O)[O-])OCO2 [2i, Diisopropyl(3R,4S)-4-(2-ethoxy-2-oxoethyl)-3-((6-nitrobenzo[d][1,3]dioxol-5-yl)methyl)pyrazolidine-1,2-dicarboxylate]	29.3

Tested on: not given
Assay: not given
Settings: not given

melting point [°C]	SMILES
136 to 139	Cc1ccc(S(=O)(=O)N2C[C@H]([C@@H](NC(=O)OC(C)(C)C)c3ccco3)[C@H](O)C2)cc1
197 to 200	Cc1ccc(S(=O)(=O)N2C[C@H]([C@@H](NC(=O)OC(C)(C)C)c3ccccc3)[C@H](O)C2)cc1 [Ia, tert-butyl ((R)-((3R,4S)-4-hydroxy-1-tosylpyrrolidin-3-yl)(phenyl)methyl)carbamate]
203 to 205	Cc1ccc(S(=O)(=O)N2C[C@H]([C@@H](NC(=O)OC(C)(C)C)c3ccc(Cl)cc3)[C@H](O)C2)cc1 [Ib, tert-butyl ((R)-(4-chlorophenyl)((3R,4S)-4-hydroxy-1-tosylpyrrolidin-3-yl)methyl)carbamate]
202 to 204	Cc1ccc(S(=O)(=O)N2C[C@H]([C@@H](NC(=O)OC(C)(C)C)c3ccc(C(F)(F)F)cc3)[C@H](O)C2)cc1 [Ic, tert-butyl ((R)-((3R,4S)-4-hydroxy-1-tosylpyrrolidin-3-yl)(4-(trifluoromethyl)phenyl)methyl)carbamate]
187 to 190	Cc1ccc([C@H](NC(=O)OC(C)(C)C)[C@H]2CN(S(=O)(=O)c3ccc(C)cc3)C[C@H]2O)cc1 [Id, tert-butyl ((R)-((3R,4S)-4-hydroxy-1-tosylpyrrolidin-3-yl)(p-tolyl)methyl)carbamate]
153 to 156	Cc1ccc(S(=O)(=O)N2C[C@H]3[C@@H](C2)OC(=O)N[C@H]3c2ccc3ccccc3c2)cc1 [Ie, (4R,4aR,7aS)-4-(naphthalen-2-yl)-6-tosylhexahydropyrrolo[3,4-e][1,3]oxazin-2(3H)-one]
210 to 213	Cc1ccc(S(=O)(=O)N2C[C@H]3[C@@H](C2)OC(=O)N[C@H]3c2ccc(Br)cc2)cc1 [If, (4R, 4aR, 7aS)-4-(4-Bromophenyl)-6-tosylhexahydropyrrolo [3,4-e][1,3]oxazin-2(3H)-one]
209 to 211	CSc1ccc([C@H](NC(=O)OC(C)(C)C)[C@H]2CN(S(=O)(=O)c3ccc(C)cc3)C[C@H]2O)cc1 [Ii, tert-Butyl ((R)-((3R, 4S)-4-hydroxy-1-tosylpyrrolidin-3-yl)(4-(methylthio)phenyl)methyl)carbamate]
186 to 189	Cc1ccc(S(=O)(=O)N2C[C@H]([C@@H](NC(=O)OC(C)(C)C)c3cccs3)[C@H](O)C2)cc1 [Ij, tert-Butyl ((R)-((3R, 4S)-4-hydroxy-1-tosylpyrrolidin-3-yl)(thiophen-2-yl)methyl) carbamate]

Continued, molecule first:

SMILES	melting point [°C]
CCOC(=O)C[C@@H]1[C@@H](C(NC(=O)OC(C)(C)C)c2ccccc2)CN(S(=O)(=O)c2ccc(C)cc2)[C@@H]1C(=O)OCC (stereo partly shown)	150 to 151
CCOC(=O)C[C@@H]1[C@@H](C(NC(=O)OC(C)(C)C)c2ccc(Cl)cc2)CN(S(=O)(=O)c2ccc(C)cc2)[C@@H]1C(=O)OCC (stereo partly shown)	155 to 156
CCOC(=O)C[C@@H]1[C@@H](C(NC(=O)OC(C)(C)C)c2ccc(C(F)(F)F)cc2)CN(S(=O)(=O)c2ccc(C)cc2)[C@@H]1C(=O)OCC (stereo partly shown)	169 to 170
CCOC(=O)C[C@@H]1[C@@H](C(NC(=O)OC(C)(C)C)c2ccc(C)cc2)CN(S(=O)(=O)c2ccc(C)cc2)[C@@H]1C(=O)OCC (stereo partly shown)	177 to 178
CCOC(=O)C[C@@H]1[C@@H](C(NC(=O)OC(C)(C)C)c2ccc3ccccc3c2)CN(S(=O)(=O)c2ccc(C)cc2)[C@@H]1C(=O)OCC (stereo partly shown)	160 to 161
CCOC(=O)C[C@@H]1[C@@H](C(NC(=O)OC(C)(C)C)c2ccc(Br)cc2)CN(S(=O)(=O)c2ccc(C)cc2)[C@@H]1C(=O)OCC (stereo partly shown)	161 to 163
CCOC(=O)C[C@@H]1[C@@H](C(NC(=O)OC(C)(C)C)c2ccc(F)cc2)CN(S(=O)(=O)c2ccc(C)cc2)[C@@H]1C(=O)OCC (stereo partly shown)	148 to 150
Cc1ccc(S(=O)(=O)N2C[C@H]3[C@@H](C2)OC(=O)N[C@H]3c2ccc(F)cc2)cc1	207 to 211
